Assay [1] has as its system SKH1 mice. Description: UVB-induced epidermal hyperplasia: EdU detection of proliferating keratinocytes. Type of assay: in vivo. How it is done: (§1) SKH1 mice were treated and exposed to UVB irradiation. The back skin of the mice was exposed to 120 mJ/cm^2 UVB using the Biospectra system equipped with UVB sunlamps with a maximum emission peak at 312 nm. Irradiations were performed under isoflurane gaseous anesthesia. Mice were treated with vehicle (PEG400/EtOH/PHY (30/20/50) p/p) or brimonidine tartrate at 0.2% or 2%, by weight, administrated by topical application (100 μl) on a 10 cm^2 area on the upper part of the back using a micropipette. The area is located on the upper part of the back to prevent the animals from liking themselves. Three applications were performed according to the following two treatment schedules:
(§2) (a) pre-treatment: one application 1 hour prior to UVB irradiation, followed by two more applications 23 hours apart;
(§3) (b) post-treatment: one application immediately following the UVB irradiation, followed by two more applications 23 hours apart.
(§4) A compound reference, i.e., an EGFR inhibitor at 4%, by weight, in EtOH/H2O (76/24) was also administrated according to the pre-treatment schedule.
One hour after the third topical treatment and one hour before euthanasia, mice received an intraperitoneal (i.p.) injection of 5-ethynyl-2′-deoxyuridine (EdU) at 100 mg/kg. After mouse euthanasia using cervical dislocation, the back skin was removed and immediately fixed in formol. […]
For EdU detection, two or three sections of 7 μm per animal were submitted to EdU staining. […] Nuclei were also stained with 4′,6-diamidino-2-phenylindole (DAPI) diluted at 5 mg/mL in Vectashield Hard Set Mounting medium for Fluorescence (ref: H-1400 Vector Laboratories). The number of keratinocytes stained with Alexa Fluor® 594 was counted from digital images (NanoZoomer C9600-12, Hamamatsu Photonics K.K) and the epidermis length of each section determined using an in house dedicated tool.
Data were analyzed using unpaired t test for validation of the UVB irradiation and one-way ANOVA with Dunnett's multiple comparison test for the analysis of the treatment effect (Prism 6; GraphPad Software Inc., San Diego, Calif., USA). […]

In assay [2] the test system is Albino hairless SKH1-hr mice. The conditions noted are these: for Skin Thickening: number of mice with observation / Skin Thickening: total number of observations: 40 weeks. How it is done: Albino hairless SKH1-hr mice (36/sex/group) were treated for 40 weeks with UVR and brimonidine gel or vehicle according to the design in table 11. […] Topical treatments were performed approximately one hour before UVR on Monday, Wednesday and Friday of each week and approximately one hour after UVR Tuesday and Thursday of each week.
*Monday, Wednesday and Friday of each week: exposure to UVR approximately one hour after test item application. Tuesday and Thursday of each week: exposure to UVR approximately one hour before test item application.
The UVR exposure was 600 RBU/week for all test groups in the table.

Assay [3] concerns SKH1 mice. The assay can be described thus: UVB-induced epidermal hyperplasia: epidermis thickness (H&E). The following applies: for Decrease of the epidermal thickness: post-treatment schedule (immediately after UVB, then twice 23 h apart). The assay is classed as in vivo. How it is done:
as §1, §2, §3, §4
One hour after the third topical treatment and one hour before euthanasia, mice received an intraperitoneal (i.p.) injection of 5-ethynyl-2′-deoxyuridine (EdU) at 100 mg/kg. After mouse euthanasia using cervical dislocation, the back skin was removed and immediately fixed in formol. The formol-fixed skin samples were embedded in paraffin and then submitted to immunohistological studies for epidermal thickness and EdU detection.
For epidermal thickness, two sections of 7 μm per animal were stained in hematoxylin and eosin (H&E) stain. Skin histology and the epidermis thickness were analyzed using image analysis (mScope 3.9, Aurora mScope) on scanned slide pictures (NanoZoomer C9600-12, Hamamatsu Photonics K.K).
Data were analyzed using unpaired t test for validation of the UVB irradiation and one-way ANOVA with Dunnett's multiple comparison test for the analysis of the treatment effect (Prism 6; GraphPad Software Inc., San Diego, Calif., USA). A p value of less than 0.05 was regarded as significant.

Data on 1 compound can be found in patent publication US20150313896A1, “METHOD FOR TREATING CELL PROLIFERATION DISORDERS” (Galderma Research & Development, priority 2013, published 2015).

Structures can show the parent of a compound that is named as a salt. Where two headings read alike, the source gives them in different places.

Regarding `Brc1c(NC2=NCCN2)ccc2nccnc12` [brimonidine tartrate, (5-Bromo-quinoxalin-6-yl)-(4,5-dihydro-1H-imidazol-2-yl)-amine], the “Reduction of the number of EdU positive cells” value in the assay on SKH1 mice [1] (0.2% topical, post-treatment schedule) is listed as 25%; in the assay on SKH1 mice [1] (2% topical, post-treatment schedule), −64%; with SKH1 mice [1] (2% topical, pre-treatment schedule), −59%. Moreover, the entries for the “UV-induced skin thickness, statistical effect” value in assay [2] (0.18% (w/w) topical), in assay [2] (1% (w/w) topical) and in assay [2] (2% (w/w) topical) were “did not statistically reduce”, “statistically reduced” and “statistically reduced”, respectively. The “Skin Thickening: number of mice with observation” value in assay [2] (female mice (36 tested), 0.18% brimonidine tartrate gel topical, UVR 600 RBU/week) amounted to 32; in assay [2] (female mice (36 tested), 1% brimonidine tartrate gel topical, UVR 600 RBU/week), 25; in assay [2] (female mice (36 tested), 2% brimonidine tartrate gel topical, UVR 600 RBU/week), 23; in assay [2] (male mice (36 tested), 0.18% brimonidine tartrate gel topical, UVR 600 RBU/week), 34; in assay [2] (male mice (36 tested), 1% brimonidine tartrate gel topical, UVR 600 RBU/week), 27; in assay [2] (male mice (36 tested), 2% brimonidine tartrate gel topical, UVR 600 RBU/week) it was 24. Also, the “Skin Thickening: total number of observations” value came to 521 in assay [2] (female mice, 0.18% brimonidine tartrate gel topical, UVR 600 RBU/week); 374 in assay [2] (female mice, 1% brimonidine tartrate gel topical, UVR 600 RBU/week); 381 in assay [2] (female mice, 2% brimonidine tartrate gel topical, UVR 600 RBU/week); 514 in assay [2] (male mice, 0.18% brimonidine tartrate gel topical, UVR 600 RBU/week); 392 in assay [2] (male mice, 1% brimonidine tartrate gel topical, UVR 600 RBU/week); 367 in assay [2] (male mice, 2% brimonidine tartrate gel topical, UVR 600 RBU/week). In addition, the “UV-induced skin thickening, effect in words” value in assay [2] (topical 0.18%, 1% and 2%, UVR 600 RBU/week) was “dose-dependent reduction”. Also, the “Decrease of the epidermal thickness” value in the assay on SKH1 mice [3] (0.2% (w/w) topical) was −16%; in the assay with SKH1 mice [3] (2% (w/w) topical), −32%. The “Inhibition of UVB-induced acanthosis (epidermis thickness)” value in the assay on SKH1 mice [3] (0.2% (w/w) topical, pre-treatment schedule) is “no effect”; in the assay with SKH1 mice [3] (2% (w/w) topical, pre-treatment schedule (1 h before UVB 120 mJ/cm^2, then twice 23 h apart)), −23%.
